Assay results: the NIST ThermoML archive (doi:10.1021/je049652j)
Numbers after ± are expanded uncertainties.

Experiment: molar heat capacity at constant pressure
Conditions: 101.33 kPa, Liquid

CCCCCCCCCBr [1-bromononane]
Conditions | molar heat capacity at constant pressure [J/K/mol]
284.15 K | 302.55 ± 1.5
286.65 K | 303.54 ± 1.5
289.15 K | 304.62 ± 1.5
291.65 K | 305.57 ± 1.5
294.15 K | 306.69 ± 1.5
296.65 K | 307.68 ± 1.5
299.15 K | 308.8 ± 1.5
301.65 K | 309.82 ± 1.6
304.15 K | 310.95 ± 1.6
306.65 K | 311.91 ± 1.6
309.15 K | 313.01 ± 1.6
311.65 K | 314.1 ± 1.6
314.15 K | 315.18 ± 1.6
316.65 K | 316.32 ± 1.6
319.15 K | 317.44 ± 1.6
321.65 K | 318.7 ± 1.6
324.15 K | 319.8 ± 1.6
326.65 K | 320.96 ± 1.6
329.15 K | 322.16 ± 1.6
331.65 K | 323.32 ± 1.6
334.15 K | 324.63 ± 1.6
336.65 K | 325 ± 1.6
339.15 K | 326.99 ± 1.6
341.65 K | 328.13 ± 1.6
344.15 K | 329.39 ± 1.6
346.65 K | 330.49 ± 1.6
349.15 K | 331.79 ± 1.7
351.65 K | 333.04 ± 1.7
353.15 K | 333.74 ± 1.7

CCCCCBr [1-bromopentane]
Conditions | molar heat capacity at constant pressure [J/K/mol]
284.15 K | 187.88 ± 0.94
286.65 K | 188.46 ± 0.94
289.15 K | 189.17 ± 0.95
291.65 K | 189.85 ± 0.95
294.15 K | 190.33 ± 0.95
296.65 K | 190.94 ± 0.95
299.15 K | 191.57 ± 0.96
301.65 K | 192.17 ± 0.96
304.15 K | 193.01 ± 0.97
306.65 K | 193.53 ± 0.97
309.15 K | 194.17 ± 0.97
311.65 K | 194.86 ± 0.97
314.15 K | 195.6 ± 0.98
316.65 K | 196.21 ± 0.98
319.15 K | 196.98 ± 0.98
321.65 K | 197.61 ± 0.99
324.15 K | 198.35 ± 0.99
326.65 K | 199.09 ± 1
329.15 K | 199.8 ± 1
331.65 K | 200.47 ± 1
334.15 K | 201.48 ± 1
336.65 K | 201.57 ± 1
339.15 K | 202.76 ± 1
341.65 K | 203.58 ± 1
344.15 K | 204.33 ± 1
346.65 K | 205.07 ± 1
349.15 K | 205.89 ± 1
351.65 K | 206.69 ± 1
353.15 K | 207.05 ± 1

CCBr [bromoethane]
Conditions | molar heat capacity at constant pressure [J/K/mol]
269.15 K | 104.07 ± 0.52
271.65 K | 104.37 ± 0.52
274.15 K | 104.6 ± 0.52
276.65 K | 104.85 ± 0.52
279.15 K | 105.14 ± 0.53
281.65 K | 105.42 ± 0.53
284.15 K | 105.63 ± 0.53
286.65 K | 105.91 ± 0.53
289.15 K | 106.14 ± 0.53
291.65 K | 106.42 ± 0.53
294.15 K | 106.75 ± 0.53
296.65 K | 107.09 ± 0.54
299.15 K | 107.42 ± 0.54

CCCCCCBr [1-bromohexane]
Conditions | molar heat capacity at constant pressure [J/K/mol]
284.15 K | 215.54 ± 1.1
286.65 K | 216.29 ± 1.1
289.15 K | 217.08 ± 1.1
291.65 K | 217.78 ± 1.1
294.15 K | 218.54 ± 1.1
296.65 K | 219.26 ± 1.1
299.15 K | 219.99 ± 1.1
301.65 K | 220.68 ± 1.1
304.15 K | 221.38 ± 1.1
306.65 K | 222.22 ± 1.1
309.15 K | 222.98 ± 1.1
311.65 K | 223.79 ± 1.1
314.15 K | 224.63 ± 1.1
316.65 K | 225.37 ± 1.1
319.15 K | 226.2 ± 1.1
321.65 K | 227.01 ± 1.1
324.15 K | 227.86 ± 1.1
326.65 K | 228.67 ± 1.1
329.15 K | 229.55 ± 1.1
331.65 K | 230.39 ± 1.1
334.15 K | 231.21 ± 1.2
336.65 K | 231.59 ± 1.2
339.15 K | 233.25 ± 1.2
341.65 K | 233.77 ± 1.2
344.15 K | 234.73 ± 1.2
346.65 K | 235.64 ± 1.2
349.15 K | 236.55 ± 1.2
351.65 K | 237.39 ± 1.2
353.15 K | 237.85 ± 1.2

CCCCCCCCCCCl [1-chlorodecane]
Conditions | molar heat capacity at constant pressure [J/K/mol]
284.15 K | 328.57 ± 1.6
286.65 K | 329.82 ± 1.6
289.15 K | 331 ± 1.7
291.65 K | 332.01 ± 1.7
294.15 K | 333.14 ± 1.7
296.65 K | 334.13 ± 1.7
299.15 K | 335.39 ± 1.7
301.65 K | 336.61 ± 1.7
304.15 K | 337.47 ± 1.7
306.65 K | 338.66 ± 1.7
309.15 K | 339.83 ± 1.7
311.65 K | 341.39 ± 1.7
314.15 K | 342.42 ± 1.7
316.65 K | 343.41 ± 1.7
319.15 K | 345.04 ± 1.7
321.65 K | 346.36 ± 1.7
324.15 K | 346.99 ± 1.7
326.65 K | 348.75 ± 1.7
329.15 K | 350.01 ± 1.8
331.65 K | 351.31 ± 1.8
334.15 K | 352.76 ± 1.8
336.65 K | 353.39 ± 1.8
339.15 K | 355.52 ± 1.8
341.65 K | 356.17 ± 1.8
344.15 K | 357.74 ± 1.8
346.65 K | 358.38 ± 1.8
349.15 K | 359.65 ± 1.8
351.65 K | 361.49 ± 1.8
353.15 K | 362.49 ± 1.8

CCCCCCCl [1-chlorohexane]
Conditions | molar heat capacity at constant pressure [J/K/mol]
284.15 K | 212.36 ± 1.1
286.65 K | 213.23 ± 1.1
289.15 K | 213.91 ± 1.1
291.65 K | 214.63 ± 1.1
294.15 K | 215.4 ± 1.1
296.65 K | 216.12 ± 1.1
299.15 K | 216.95 ± 1.1
301.65 K | 217.75 ± 1.1
304.15 K | 218.44 ± 1.1
306.65 K | 219.22 ± 1.1
309.15 K | 219.99 ± 1.1
311.65 K | 221 ± 1.1
314.15 K | 221.78 ± 1.1
316.65 K | 222.49 ± 1.1
319.15 K | 223.43 ± 1.1
321.65 K | 224.31 ± 1.1
324.15 K | 224.7 ± 1.1
326.65 K | 226.02 ± 1.1
329.15 K | 227.13 ± 1.1
331.65 K | 228.86 ± 1.1
334.15 K | 228.99 ± 1.1
336.65 K | 229.44 ± 1.1
339.15 K | 230.06 ± 1.1
341.65 K | 231.22 ± 1.2
344.15 K | 231.83 ± 1.2
346.65 K | 232.32 ± 1.2
349.15 K | 233.18 ± 1.2
351.65 K | 234.56 ± 1.2
353.15 K | 235.17 ± 1.2
